Source: BindingDB's records for doi:10.1016/s0960-894x(03)00584-5 (Schering-Plough Research Institute, 2003)

Target: Hepatitis C virus NS3 protease (Hepatitis C virus)
Experiment: Inhibitory activity evaluated in the HCV protease binding assay

With `O=C1OC[C@H]2O[C@@H](Oc3cc(O)c4c(c3)OC(c3ccccc3)CC4=O)[C@H](O)[C@@H](O)[C@@H]2OC(=O)c2cc(O)c(O)c(O)c2-c2c1cc(O)c(O)c2O` (stereo partly specified) [2,3,4,5,6,7,14,15-octahydroxy-13-(5-hydroxy-4-oxo-2-phenyl-3,4-dihydro-2H-7-chromenyloxy)-9,11,11a,13,14,15,15a,17-octahydrodibenzo[g,i]pyrano[3,2-b][1,5]dioxacycloundecine-9,17-dione] as the compound, how does the IC50 read?
Its IC50 is 2800 nM.
